SMILES strings stand for the structures. Read-outs that look alike come from different tables or passages of the source.

23 compounds from US9062037B2, “Tazarotene derivatives” (Stiefel Laboratories, Inc., priority 2009, dated 2015) can be followed below.

The conditions of series [1]: initial concentration 10 μM; 0 or 30 minutes.
Procedure: Hepatic microsomal reactions were carried out in microcentrifuge tubes in the following manner. Human liver microsomes (0.5 or 1.0 mg/ml protein), Test Article (1 or 10 μM), paraoxon (0, 10 or 100 μM), NADPH regenerating system (10 mM glucose-6-phosphate, 1 unit/ml glucose-6-phosphate dehydrogenase, 1 mM NADP^+), magnesium chloride (5 mM) in 0.1 M potassium phosphate buffer, pH 7.4 were incubated at 37° C. in a shaking water bath. Reactions were initiated with the addition of substrate with the exception of the zero-time incubations. The total reaction volume was 0.2 ml. The reactions were incubated for 15, 30, 45 or 60 minutes, terminated with 0.2 ml ice-cold acetonitrile and then placed on ice. For zero-time incubations, ice cold acetonitrile was added to the mixture containing microsomes, along with NADPH regenerating system, magnesium chloride in phosphate buffer and the Test Article. Each time point was carried out in triplicate.
Disappearance of Test Article and formation of metabolites following in vitro metabolism were determined by LC-MS/MS using multiple reaction monitoring. LightSight® software (Applied Biosystems, Foster City, Calif.) was used to generate the mass spectrometry methods and carry out the data mining.
Control incubations were carried out with the identical incubation procedures as described above with the following exceptions. In negative control reactions, microsomes were not included. […] Duplicate reactions with an initial concentration of 10 μM were incubated for 0 or 30 minutes. Microsomal metabolic stability of 7-ethoxycoumarin was determined by LC-MS/MS.
For series [2], the system named is Reconstructed human epidermis (RHE) tissues. The series can be described thus: RT-qPCR gene expression of K10, K19, filaggrin, K4 and K13 in reconstructed human epidermis (RHE) cultures. The format is cell-based. The following applies: 72 h, 2.83 mM in OD/10% DMSO, 6 μl. On the procedure: Reconstructed human epidermis (RHE) tissues were cultured in-house as previously described by Poumay et al. Briefly, polycarbonate culture inserts (12 mm diameter and 0.4 μm pore size, Millipore) were filled with 150 μL of a suspension containing approximately 5×10^5 primary adult human keratinocytes. The inserts received another 500 μL of keratinocyte culture media and were placed in a 6-well plate (1 insert/well) containing 2.5 mL of RHE Growth Media (Epilife media +1.5 mM CaCl2). RHE cultures were incubated at 37° C. in a humidified atmosphere containing 5% CO2, for 24 hours. Subsequently (on Day 0), RHE cultures were exposed to the air-liquid interface by removing the RHE Growth Media from the top of the cultures, and replacing with 1.5 mL/well of RHE Growth Media containing 50 μg/mL vitamin C. Media was changed every other day until the cultures were dosed with Test Articles. A stock solution of 0.1% tazarotene (2.83 mM at 99.5% purity) in OD/10% DMSO was prepared. For tazarotene benzoate, hydroxytazarotenic acid, keto tazarotenic acid, keto tazarotene, and tazarotene nicotinate, a 10 mg/mL stock solution (in DMSO) was already prepared. From this stock solution, a 2.83 mM working solution (in octyldodecanol) was prepared. All other tested compounds were resuspended in DMSO and OD to obtain a final concentration of 2.83 mM in OD/10% DMSO. On Day 12, the cultures were placed in 60 mm petri dishes containing 3 mL of RHE Growth Media (+VitC). Test articles (6 μl) were applied to triplicate cultures and cultures were incubated at 37° C. for 72 hours. Untreated and OD alone served as negative controls. At the end of the incubation period, the growth media was collected and stored at −20° C. The tissues were cut in half: one half was placed in 10% NBF for histology, and the other half was placed in RNAlater™ solution for RT-qPCR. RNA was isolated and concentrations were determined using a NanoDrop spectrophotometer. In addition to using the same amount of RNA for each sample, data was normalized to internal GAPDH mRNA levels and is expressed as relative quantification (RQ) to untreated controls. RNA extracts from each replicate were amplified using RT-qPCR. The relative gene expression of five biomarkers was determined: Keratin 10, Keratin 19, Filaggrin, Keratin 4, and Keratin 13.
(Real-time PCR tracks product formation cycle by cycle.)

Setting [3] is: read-out: K4 Fold Change vs Untreated/OD controls (upregulation).
The mark [4] stands for this setting: read-out: K13 Fold Change vs Untreated/OD controls (upregulation).
Setting [5] is: read-out: K19 Fold Change vs Untreated/OD controls (upregulation).

As to `CCOc1ccc2ccc(=O)oc2c1` [7-ethoxycoumarin], the “metabolized by human liver microsomes (positive control)” value in series [1] was “as expected”.

On to `CCOC(=O)c1ccc(C#Cc2ccc3c(c2)C(C)(C)C[C@@H](OC(=O)c2ccccc2)S3)nc1` [Compound 5, (S)-6-(2-(2-benzoyloxy-4,4-dimethylthiochroman-6-yl)ethynyl) nicotinic acid, ethyl ester], for which the results for the fold induction at 2830 µM in series [2] (setting [3]), in series [2] (setting [4]) and in series [2] (setting [5]) were 45, 7 and 8, respectively.

In the case of `CCOC(=O)c1ccc(C#Cc2ccc3c(c2)C(C)(C)C[C@H](OC(=O)c2ccccc2)S3)nc1` [Compound 6, (R)-6-(2-(2-benzoyloxy-4,4-dimethylthiochroman-6-yl)ethynyl)nicotinic acid, ethyl ester], the fold induction at 2830 µM in series [2] (setting [3]) turned out to be 20; in series [2] (setting [4]) it was 7; in series [2] (setting [5]), 8.

Take `CCOC(=O)c1ccc(C#Cc2ccc3c(c2)C(C)(C)C[C@@H](OC(=O)c2cccnc2)S3)nc1` [Compound 8, (S)-6-[4,4-dimethyl-2-(pyridine-3-carbonyloxy)thiochroman-6-ylethynyl]nicotinic acid ethyl ester]: the fold induction at 2830 µM was determined as 35 in series [2] (setting [3]), 7 in series [2] (setting [4]) and 18 in series [2] (setting [5]).

`CCOC(=O)c1ccc(C#Cc2ccc3c(c2)C(C)(C)C[C@H](OC(=O)c2cccnc2)S3)nc1` [Compound 9, (R)-6-[4,4-dimethyl-2-(pyridine-3-carbonyloxy)thiochroman-6-ylethynyl]nicotinic acid ethyl ester]: the fold induction at 2830 µM came out at 32 in series [2] (setting [3]), 5 in series [2] (setting [4]) and 17 in series [2] (setting [5]).

For the compound `CC1(C)CC(O)Sc2ccc(C#Cc3ccc(C(=O)O)cn3)cc21` (stereo not shown) [Compound 10, 6-((2-hydroxy-4,4-dimethylthiochroman-6-yl)ethynyl)nicotinic acid], the fold induction at 2830 µM in series [2] (setting [3]) was 65; in series [2] (setting [4]), 11; in series [2] (setting [5]), 25.

Turning to `CC1(C)CC(=O)Sc2ccc(C#Cc3ccc(C(=O)O)cn3)cc21` [Compound 11, 6-((4,4-dimethyl-2-oxothiochroman-6-yl)ethynyl)nicotinic acid], the fold induction at 2830 µM in series [2] (setting [3]) came out at 52; in series [2] (setting [4]), 20; in series [2] (setting [5]) it was 21.

As for `CCOC(=O)c1ccc(C#Cc2ccc3c(c2)C(C)(C)CC(=O)S3)nc1` [Compound 12, ethyl 6-((4,4-dimethyl-2-oxothiochroman-6-yl)ethynyl)nicotinate], the fold induction at 2830 µM in series [2] (setting [3]) was 103 to 180; in series [2] (setting [4]), 15; in series [2] (setting [5]), 27.

As for `CCCCCCCCCCCCCCCC(=O)OC1CC(C)(C)c2cc(C#Cc3ccc(C(=O)OCC)cn3)ccc2S1` (stereo not shown) [Compound 13], the fold induction at 2830 µM in series [2] (setting [3]) amounted to 38; in series [2] (setting [4]) it was 6; in series [2] (setting [5]), 4.

With `CCOC(=O)c1ccc(C#Cc2ccc3c(c2)C(C)(C)CC(O)S3)nc1` (stereo not shown) [Compound 14, Ethyl 6-[(2-hydroxy-4,4-dimethyl-3,4-dihydro-2-thiochromen-6-yl)ethynyl]pyridine-3-carboxylate], the fold induction at 2830 µM came out at 87 in series [2] (setting [3]), 20 in series [2] (setting [4]) and 29 in series [2] (setting [5]).

With `CCOC(=O)c1ccc(C#Cc2ccc3c(c2)C(C)(C)CC(OC(=O)CO)S3)nc1` (stereo not shown) [Compound 15, 6-[2-(2-Hydroxy-acetoxy)-4,4-dimethyl-thiochroman-6-ylethynyl]-nicotinic acid ethyl ester], the fold induction at 2830 µM in series [2] (setting [3]) was 64; in series [2] (setting [4]) it was 12; in series [2] (setting [5]), 33 to 43.

Take `CCOC(=O)c1ccc(C#Cc2ccc3c(c2)C(C)(C)CC(OC(=O)COC)S3)nc1` (stereo not shown) [Compound 16]: the results for the fold induction at 2830 µM in series [2] (setting [3]), in series [2] (setting [4]) and in series [2] (setting [5]) were 69, 9 and 20, respectively.

Regarding `CCOC(=O)c1ccc(C#Cc2ccc3c(c2)C(C)(C)CC(OC(C)=O)S3)nc1` (stereo not shown) [Compound 17], the fold induction at 2830 µM was 103 to 180 in series [2] (setting [3]), 15 in series [2] (setting [4]) and 24 in series [2] (setting [5]).

As for `CCCC(=O)OC1CC(C)(C)c2cc(C#Cc3ccc(C(=O)OCC)cn3)ccc2S1` (stereo not shown) [Compound 18, Ethyl 6-[(2-n-butyryloxyl-4,4-dimethyl-3,4-dihydro-2-thiochromen-6-yl)ethynyl]pyridine-3-carboxylate], the fold induction at 2830 µM is 60 in series [2] (setting [3]), 9 in series [2] (setting [4]) and 22 in series [2] (setting [5]).

Regarding `CCCCCCCCCCCC(=O)OC1CC(C)(C)c2cc(C#Cc3ccc(C(=O)OCC)cn3)ccc2S1` (stereo not shown) [Compound 19], the fold induction at 2830 µM in series [2] (setting [3]) was 19; in series [2] (setting [4]) it was 2; in series [2] (setting [5]) it was 2.

Consider `CCOC(=O)c1ccc(C#Cc2ccc3c(c2)C(C)(C)CC(OC(=O)C(C)C)S3)nc1` (stereo not shown) [Compound 20, Ethyl 6-[(2-isobutyryloxy-4,4-dimethyl-3,4-dihydro-2-thiochromen-6-yl)ethynyl]pyridine-3-carboxylate], for which the fold induction at 2830 µM in series [2] (setting [3]) is 22; in series [2] (setting [4]), 6; in series [2] (setting [5]), 15.

On to `CC/C=C\C/C=C\C/C=C\CCCCCCC(=O)OC1CC(C)(C)c2cc(C#Cc3ccc(C(=O)OCC)cn3)ccc2S1` (stereo not shown) [Compound 22], for which the fold induction at 2830 µM in series [2] (setting [3]) turned out to be 38; in series [2] (setting [4]), 10; in series [2] (setting [5]) it was 12.

In the case of `CCOC(=O)c1ccc(C#Cc2ccc3c(c2)C(C)(C)CC(OC(=O)C2CCN(C)CC2)S3)nc1` (stereo not shown) [Compound 23], the results for the fold induction at 2830 µM in series [2] (setting [3]), in series [2] (setting [4]) and in series [2] (setting [5]) were 73, 19 and 33 to 43, respectively.

On to `CCOC(=O)c1ccc(C#Cc2ccc3c(c2)C(C)(C)CC(OC(=O)CC)S3)nc1` (stereo not shown) [Compound 24], for which the fold induction at 2830 µM was 74 in series [2] (setting [3]), 23 in series [2] (setting [4]) and 33 to 43 in series [2] (setting [5]).

With `CCOC(=O)c1ccc(C#Cc2ccc3c(c2)C(C)(C)CC(OC(=O)c2ccccc2O)S3)nc1` (stereo not shown) [Compound 25, Ethyl 6-[(2-salicylicyl-4,4-dimethyl-3,4-dihydro-2-thiochromen-6-yl)ethynyl]pyridine-3-carboxylate], the fold induction at 2830 µM in series [2] (setting [3]) is 103 to 180; in series [2] (setting [4]), 17; in series [2] (setting [5]) it was 23.

Regarding `CCOC(=O)c1ccc(C#Cc2ccc3c(c2)C(C)(C)CC(OC(=O)C2CCOCC2)S3)nc1` (stereo not shown) [Compound 26], the fold induction at 2830 µM was 90 in series [2] (setting [3]), 10 in series [2] (setting [4]) and 20 in series [2] (setting [5]).

For `CCOC(=O)c1ccc(C#Cc2ccc3c(c2)C(C)(C)CC(OC(=O)CCCCC(=O)OC)S3)nc1` (stereo not shown) [Compound 27, Ethyl 6-[(2-monomethyladopyl-4,4-dimethyl-3,4-dihydro-2-thiochromen-6-yl)ethynyl]pyridine-3-carboxylate], the fold induction at 2830 µM in series [2] (setting [3]) is 70; in series [2] (setting [4]), 19; in series [2] (setting [5]), 33 to 43.

For `CCOC(=O)c1ccc(C#Cc2ccc3c(c2)C(C)(C)CC(OC(=O)CCCCCCCC(=O)OC)S3)nc1` (stereo not shown) [Compound 28], the values for the fold induction at 2830 µM in series [2] (setting [3]), in series [2] (setting [4]) and in series [2] (setting [5]) were 103 to 180, 18 and 30, respectively.
